Measurements published in patent US9963462B2 (priority 2015, dated 2018).

How the values were obtained:
[1] = molecular target: SNAP-hSPR (sepiapterin reductase, SPR) (Homo sapiens, UniProt P35270); assay: biochemical; assay type: binding; details: terbium labelled SNAP-hSPR / SSZ labelled SNAP-EGFP; read-out: hTR-FRET IC50
[2] = tested on: BH4 levels in SK-N-BE (2) cells; assay: SKN-N-BE (2) cellular assay, BH4 levels by LC-MS; assay type: cell-based; details: Homo sapiens, SKNBE2, read-out: SK-N-BE(2) IC50, SK-N-BE (2) cells, BH4 levels by LC-MS

Chain of SNAP-hSPR (sepiapterin reductase, SPR) (P35270 whole entry): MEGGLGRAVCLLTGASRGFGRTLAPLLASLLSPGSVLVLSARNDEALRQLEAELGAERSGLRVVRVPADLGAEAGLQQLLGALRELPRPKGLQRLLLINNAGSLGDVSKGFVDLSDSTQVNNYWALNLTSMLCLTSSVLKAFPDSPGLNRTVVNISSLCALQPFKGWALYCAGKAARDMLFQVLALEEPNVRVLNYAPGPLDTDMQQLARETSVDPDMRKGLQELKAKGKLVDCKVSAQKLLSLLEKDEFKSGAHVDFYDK

SMILES	IC50 [1]	IC50 [2]
Cc1cc2nc(-n3ncc(C(=O)N4CCC(C(F)(F)F)CC4)c3C)[nH]c(=O)c2s1 [Q-0409]	200 nM	25000 nM
Cc1c(C(=O)N2CCC(C(F)(F)F)CC2)cnn1-c1nc2sccc2c(=O)[nH]1 [Q-0410]	2 nM	200 nM
Cc1nn(-c2nc3ccsc3c(=O)[nH]2)c(C)c1C(=O)N1CCC(C)(C)C1 [Q-0411]	9 nM	2700 nM
Cc1c(C(=O)N2CCCCC2(C)C)cnn1-c1nc2ccsc2c(=O)[nH]1 [Q-0412]	9 nM	500 nM
Cc1c(C(=O)N2[C@H](C)CCC[C@@H]2C)cnn1-c1nc2ccsc2c(=O)[nH]1 [Q-0417]	4 nM	900 nM
Cc1nn(-c2nc3ccsc3c(=O)[nH]2)c(C)c1C(=O)N1CCC(C(F)(F)F)CC1 [Q-0419]	5 nM	700 nM
Cc1nc(-n2ncc(C(=O)N3CCC(C(F)(F)F)CC3)c2C)[nH]c(=O)c1Cl [Q-0421]	3 nM	700 nM
Cc1c(C(=O)N2CCC(C(F)(F)F)CC2C)cnn1-c1nc2ccsc2c(=O)[nH]1 (stereo not drawn) [Q-0422]	3 nM	200 nM
Cc1c(C(=O)N2CCC(F)(F)CC2)cnn1-c1nc2c(c(=O)[nH]1)CCC2 [Q-0424]	4 nM	1100 nM
Cc1c(C(=O)N2CCC(C(F)(F)F)CC2)cnn1-c1nc2c(c(=O)[nH]1)CCCC2 [Q-0425]	30 nM	2100 nM
Cc1c(C(=O)N2CCC(C(F)(F)F)CC2)cnn1-c1nc2c(ccn2C)c(=O)[nH]1 [Q-0426]	100 nM	16000 nM
Cc1c(C(=O)N2CCC(c3ccccc3)CC2)cnn1-c1nc2c(c(=O)[nH]1)CCC2 [Q-0428]	3 nM	19 nM
Cc1c(C(=O)N2CCC(C(F)(F)F)CC2)cnn1-c1nc2ccccc2c(=O)[nH]1 [Q-0429]	100 nM	49000 nM
Cc1c(C(=O)N2CCC(C(F)(F)F)C2)cnn1-c1nc2c(c(=O)[nH]1)CCC2 (stereo not drawn) [Q-0431]	3 nM	500 nM
Cc1cc(=O)[nH]c(-n2cc(C(=O)N3CCC(C(F)(F)F)CC3)c(C)n2)n1 [Q-0432, 6-methyl-2-{3-methyl-4-[4-(trifluoromethyl)piperidine-1-carbonyl]-1H-pyrazol-1-yl}-3,4-dihydropyrimidin-4-one]	40 nM	6500 nM
Cc1c(C(=O)N(CCC(F)(F)F)CC(F)(F)F)cnn1-c1nc2c(c(=O)[nH]1)CCC2 [Q-0435]	20 nM	1200 nM
Cc1c(C(=O)N2CCC(C(F)(F)F)CC2)cnn1-c1nc2[nH]ncc2c(=O)[nH]1 [Q-0438]	100 nM	35000 nM
Cc1cc(-n2ncc(C(=O)N3CCC(C(F)(F)F)CC3)c2C)[nH]c(=O)c1 [Q-0439, 4-methyl-6-{5-methyl-4-[4-(trifluoromethyl)piperidine-1-carbonyl]-1H-pyrazol-1-yl}-1,2-dihydropyridin-2-one]	1 nM	96 nM
Cc1cc(-n2cc(C(=O)N3CCC(C(F)(F)F)CC3)c(C)n2)[nH]c(=O)c1 [Q-0440, 4-methyl-6-{3-methyl-4-[4-(trifluoromethyL)piperidine-1-carbonyl]-1H-pyrazol-1-yl}-1,2-dihydropyridin-2-one]	9 nM	1400 nM
Cc1c(C(=O)N2CCC(C(F)(F)F)CC2)cnn1-c1nc2scnc2c(=O)[nH]1 [Q-0441]	100 nM	31000 nM

SMILES	IC50 [1]	IC50 [2]
Cc1cc(=O)[nH]c(-n2cc(C(=O)N3CCC(C(F)(F)F)CC3)cn2)n1 [Q-0443]	9 nM	3900 nM
Cc1cc(=O)[nH]c(-n2ncc(C(=O)N3CCC(C(F)(F)F)CC3)c2C(C)C)n1 [Q-0444]	10 nM	2700 nM
CC(C)c1c(C(=O)N2CCC(C(F)(F)F)CC2)cnn1-c1nc2c(c(=O)[nH]1)CCC2 [Q-0445]	10 nM	900 nM
Cc1c(C(=O)N2CCC(O)(c3ccccc3)CC2)cnn1-c1nc2c(c(=O)[nH]1)CCC2 [Q-0446]	7 nM	96 nM
Cc1c(C(=O)N2CCC(C(C)(O)C(F)(F)F)CC2)cnn1-c1nc2c(c(=O)[nH]1)CCC2 (stereo not drawn) [Q-0449]	3 nM	78 nM
Cc1c(C(=O)N2CCCC(C(F)(F)F)C2)cnn1-c1nc2c(c(=O)[nH]1)CCC2 (stereo not drawn) [Q-0450]	5 nM	300 nM
Cc1nc(-n2ncc(C(=O)N3CCc4ccccc4C3)c2C)[nH]c(=O)c1Cl [Q-0456]	8 nM	500 nM
Cc1nn(-c2nc3ccsc3c(=O)[nH]2)c(C)c1C(=O)N1CCc2ccccc2C1 [Q-0458]	6 nM	400 nM
Cc1cc(-n2cc(C(=O)N3CCC(C(F)(F)F)CC3)cn2)[nH]c(=O)c1 [Q-0460, 4-methyl-6-{4-[4-(trifluoromethyl)piperidine-1-carbonyl]-1H-pyrazol-1-yl}-1,2-dihydropyridin-2-one]	3 nM	600 nM
COC1CCN(C(=O)c2cnn(-c3nc4c(c(=O)[nH]3)CCC4)c2C)CC1 [Q-0461]	3 nM	400 nM
Cc1c(C(=O)N2CCC(Oc3ccccc3)CC2)cnn1-c1nc2c(c(=O)[nH]1)CCC2 [Q-0462]	5 nM	94 nM
O=C(c1cnn(-c2nc3c(c(=O)[nH]2)CCC3)c1C1CC1)N1CCC(C(F)(F)F)CC1 [Q-0463]	4 nM	300 nM
Cc1c(C(=O)N2CCC(C#N)CC2)cnn1-c1nc2c(c(=O)[nH]1)CCC2 [Q-0464]	3 nM	300 nM
O=c1[nH]c(-c2ccc(Br)cn2)nc2c1CCC2 [Q-0465]	300 nM	150000 nM
Cc1c(C(=O)N2CCC(C(F)(F)F)CC2)cnn1-c1cc(C(F)(F)F)cc(=O)[nH]1 [Q-0466, 6-{5-methyl-4-[4-(trifluoromethyl)piperidine-1-carbonyl]-1H-pyrazol-1-yl}-4-(trifluoromethyl)-1,2-dihydropyridin-2-one]	1 nM	59 nM
Cc1c(C(=O)N2CCCC(Oc3ccccc3)C2)cnn1-c1nc2c(c(=O)[nH]1)CCC2 (stereo not drawn) [Q-0468]	7 nM	200 nM
Cc1c(C(=O)N2CCC(C(C)(C)C#N)CC2)cnn1-c1nc2c(c(=O)[nH]1)CCC2 [Q-0469]	4 nM	37 nM
COC1CN(C(=O)c2cnn(-c3nc4c(c(=O)[nH]3)CCC4)c2C)C1 [Q-0470]	5 nM	1000 nM
COC(=O)c1ccc(-c2nc3c(c(=O)[nH]2)CCC3)nc1 [Q-0471]	80 nM	16000 nM
O=C(c1ccc(-c2nc3c(c(=O)[nH]2)CCC3)nc1)N1CCC(C(F)(F)F)CC1 [Q-0472, 2-{5-[4-(trifluoromethyl)piperidine-1-carbonyl]pyridin-2-yl}-3H,4H,5H,6H,7H-cyclopenta[d]pyrimidin-4-one]	200 nM	17000 nM

SMILES	IC50 [1]	IC50 [2]
Cc1c(C(=O)N2CCC(C#N)(c3ccccc3)CC2)cnn1-c1nc2c(c(=O)[nH]1)CCC2 [Q-0473]	6 nM	92 nM
Cc1c(C(=O)N2CCC(CC(F)(F)F)CC2)cnn1-c1nc2c(c(=O)[nH]1)CCC2 [Q-0476]	3 nM	56 nM
Cc1c(C(=O)N2CCC(Oc3ccccc3)C2)cnn1-c1nc2c(c(=O)[nH]1)CCC2 (stereo not drawn) [Q-0477]	5 nM	91 nM
COC1CCN(C(=O)c2cnn(-c3nc4c(c(=O)[nH]3)CCC4)c2C)C1 (stereo not drawn) [Q-0478]	6 nM	1400 nM
Cc1c(C(=O)N2CC(c3ccccc3)C2)cnn1-c1nc2c(c(=O)[nH]1)CCC2 [Q-0479]	6 nM	100 nM
Cc1c(C(=O)O)cnn1-c1nc2c(c(=O)[nH]1)CCC2 [Q-0481, 5-methyl-1-{4-oxo-3H,4H,5H,6H,7H-cyclopenta[d]pyrimidin-2-yl}-1H-pyrazole-4-carboxylic acid]	30 nM	95000 nM
COC1CCCN(C(=O)c2cnn(-c3nc4c(c(=O)[nH]3)CCC4)c2C)C1 (stereo not drawn) [Q-0482]	8 nM	1000 nM
Cc1c(C(=O)N2CCC(O)(c3ccccc3)CC2C)cnn1-c1nc2c(c(=O)[nH]1)CCC2 (stereo not drawn) [Q-0483]	4 nM	49 nM
Cc1ccccc1N1CCN(C(=O)c2cnn(-c3nc4c(c(=O)[nH]3)CCC4)c2C)CC1 [Q-0485]	9 nM	62 nM
Cc1c(C(=O)N(C)Cc2nnc(-c3ccc(Cl)cc3)o2)cnn1-c1nc2c(c(=O)[nH]1)CCC2 [Q-0486]	6 nM	100 nM
Cc1c(C(=O)N(CCC#N)C2CCCCC2)cnn1-c1nc2c(c(=O)[nH]1)CCC2 [Q-0487]	3 nM	600 nM
Cc1c(C(=O)N2CCC(c3ccccc3)CC2)cnn1-c1nc2[nH]ccc2c(=O)[nH]1 [Q-0488]	20 nM	1200 nM
Cc1c(C(=O)N2Cc3ccccc3C[C@H]2C(=O)NC(C)(C)C)cnn1-c1nc2c(c(=O)[nH]1)CCC2 [Q-0489]	8 nM	53 nM
CCN(Cc1ccccc1)C(=O)c1cnn(-c2nc3c(c(=O)[nH]2)CCC3)c1C [Q-0490]	7 nM	100 nM
Cc1c(C(=O)N2CCC(Cc3ccccc3)CC2)cnn1-c1nc2c(c(=O)[nH]1)CCC2 [Q-0491]	20 nM	37 nM
Cc1c(C(=O)N(C)C2CCCCC2)cnn1-c1nc2c(c(=O)[nH]1)CCC2 [Q-0492]	8 nM	200 nM
Cc1c(C(=O)N(Cc2ccccc2)[C@@H](C)c2ccccc2)cnn1-c1nc2c(c(=O)[nH]1)CCC2 [Q-0493]	30 nM	29 nM
Cc1c(CN2CCCCC2=O)cnn1-c1nc2c(c(=O)[nH]1)CCC2 [Q-0494, 1-[(5-methyl-1-{4-oxo-3H,4H,5H,6H,7H-cyclopenta[d]pyrimidin-2-yl}-1H-pyrazol-4-yL)methyl]piperidin-2-one]	6 nM	300 nM
Cc1c(C(=O)N2CCC(c3ccccc3)CC2)cnn1-c1nc2ccsc2c(=O)[nH]1 [Q-0495]	5 nM	51 nM
Cc1c(C(=O)N2CCC[C@@H]2C(=O)OCc2ccccc2)cnn1-c1nc2c(c(=O)[nH]1)CCC2 [Q-0496]	7 nM	400 nM
